# Results taken from ChEMBL document CHEMBL5712895, “PRC2 Is Dispensable in Vivo for β-Catenin-Mediated Repression of Chondrogenesis in the Mouse Embryonic Cranial Mesenchyme” (G3 (Bethesda), 2018).
# Calls of active or inactive are those of the source. The rule behind the calls is not given here.
# Columns and labels:
# [1] = target: Histone-lysine N-methyltransferase EZH2 (Homo sapiens, UniProt Q15910); test: Inhibition of EZH2 (unknown origin)
# [2] = target: Histone-lysine N-methyltransferase EZH2 (Mus musculus) (UniProt Q61188); test: Inhibition of EZH2 in mouse primary cranial mesenchyme ectoderm fibroblast assessed as increase in Sox9 mRNA level by qPCR analysis
# [3] = target: Histone-lysine N-methyltransferase EZH2 (Mus musculus) (UniProt Q61188); test: Inhibition of EZH2 in mouse primary cranial mesenchyme ectoderm fibroblast assessed as reduction in H3K27me3 protein level at 500 to 2000 nM by Western blotting analysis; conditions: dose 500-2000 nM
# [4] = target: T1, Histone-lysine N-methyltransferase EZH1 (Homo sapiens, UniProt Q92800); test: Inhibition of EZH1 (unknown origin)
# T1 sequence (Q92800 whole entry): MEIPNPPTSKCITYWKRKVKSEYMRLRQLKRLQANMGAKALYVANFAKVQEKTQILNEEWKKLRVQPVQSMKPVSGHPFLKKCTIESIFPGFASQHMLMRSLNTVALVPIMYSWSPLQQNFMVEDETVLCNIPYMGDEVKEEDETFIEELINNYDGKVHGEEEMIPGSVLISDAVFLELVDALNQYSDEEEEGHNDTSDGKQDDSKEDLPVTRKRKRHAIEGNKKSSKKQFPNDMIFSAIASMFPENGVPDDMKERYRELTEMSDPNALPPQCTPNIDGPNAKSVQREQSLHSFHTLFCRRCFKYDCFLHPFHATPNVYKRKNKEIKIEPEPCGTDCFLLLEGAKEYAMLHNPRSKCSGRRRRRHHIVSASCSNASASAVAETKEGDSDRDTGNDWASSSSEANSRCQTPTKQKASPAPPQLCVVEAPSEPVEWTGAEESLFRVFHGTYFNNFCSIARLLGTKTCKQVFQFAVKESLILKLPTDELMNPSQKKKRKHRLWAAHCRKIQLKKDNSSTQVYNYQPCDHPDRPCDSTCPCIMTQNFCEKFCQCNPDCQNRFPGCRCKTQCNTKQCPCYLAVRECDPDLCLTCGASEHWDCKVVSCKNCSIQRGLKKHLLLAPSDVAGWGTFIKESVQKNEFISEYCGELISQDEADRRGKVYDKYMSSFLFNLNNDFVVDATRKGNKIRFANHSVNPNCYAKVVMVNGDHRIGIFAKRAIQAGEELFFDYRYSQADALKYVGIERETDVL
# [5] = target: Histone-lysine N-methyltransferase EZH2 (Mus musculus) (UniProt Q61188); test: Inhibition of EZH2 in mouse primary cranial mesenchyme ectoderm fibroblast assessed as reduction in H3K27me3 protein level at 150 to 2000 nM by Western blotting analysis; conditions: dose 150-2000 nM
# Histone-lysine N-methyltransferase EZH2 (Mus musculus), sequence (Q61188 whole entry): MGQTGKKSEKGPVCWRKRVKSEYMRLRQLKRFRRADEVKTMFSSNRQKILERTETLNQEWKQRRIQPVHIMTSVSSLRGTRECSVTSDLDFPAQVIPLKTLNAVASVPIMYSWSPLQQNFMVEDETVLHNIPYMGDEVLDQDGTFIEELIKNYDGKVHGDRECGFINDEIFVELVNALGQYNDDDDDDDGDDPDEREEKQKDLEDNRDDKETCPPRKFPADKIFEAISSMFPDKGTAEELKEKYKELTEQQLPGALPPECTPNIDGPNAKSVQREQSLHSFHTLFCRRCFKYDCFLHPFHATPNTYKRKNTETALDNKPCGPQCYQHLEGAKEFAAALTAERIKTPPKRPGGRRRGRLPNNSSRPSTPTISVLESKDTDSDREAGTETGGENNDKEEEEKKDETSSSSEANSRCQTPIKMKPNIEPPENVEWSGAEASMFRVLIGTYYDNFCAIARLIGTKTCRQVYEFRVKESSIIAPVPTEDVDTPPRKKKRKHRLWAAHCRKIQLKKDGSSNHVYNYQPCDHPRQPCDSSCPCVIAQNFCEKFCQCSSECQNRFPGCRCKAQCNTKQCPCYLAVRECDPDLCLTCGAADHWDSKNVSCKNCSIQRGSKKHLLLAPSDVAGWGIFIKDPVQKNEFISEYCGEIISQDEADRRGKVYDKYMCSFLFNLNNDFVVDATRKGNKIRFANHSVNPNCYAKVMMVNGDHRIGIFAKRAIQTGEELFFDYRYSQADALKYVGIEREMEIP
# Histone-lysine N-methyltransferase EZH2, sequence (Q15910 whole entry): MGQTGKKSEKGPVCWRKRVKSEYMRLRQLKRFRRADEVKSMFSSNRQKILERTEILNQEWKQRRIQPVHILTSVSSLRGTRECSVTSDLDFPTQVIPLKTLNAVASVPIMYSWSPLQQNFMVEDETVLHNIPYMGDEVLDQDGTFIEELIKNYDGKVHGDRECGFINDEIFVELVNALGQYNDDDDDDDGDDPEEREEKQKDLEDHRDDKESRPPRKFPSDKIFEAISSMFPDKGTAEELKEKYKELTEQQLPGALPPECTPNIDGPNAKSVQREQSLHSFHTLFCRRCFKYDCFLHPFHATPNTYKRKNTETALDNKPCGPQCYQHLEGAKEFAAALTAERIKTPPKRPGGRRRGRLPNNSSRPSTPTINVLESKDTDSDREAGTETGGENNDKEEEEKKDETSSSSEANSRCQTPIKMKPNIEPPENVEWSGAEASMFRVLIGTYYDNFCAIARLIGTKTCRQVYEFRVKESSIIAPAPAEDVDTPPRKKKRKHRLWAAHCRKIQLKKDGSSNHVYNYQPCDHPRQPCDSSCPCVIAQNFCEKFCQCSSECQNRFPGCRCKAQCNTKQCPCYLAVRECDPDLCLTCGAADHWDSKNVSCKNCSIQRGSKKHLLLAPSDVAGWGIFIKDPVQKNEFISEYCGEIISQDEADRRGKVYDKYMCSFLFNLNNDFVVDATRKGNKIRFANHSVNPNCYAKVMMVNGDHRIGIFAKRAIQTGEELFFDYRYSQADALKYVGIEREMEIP
IC50 [1],inhibition [2],inhibition [3],IC50 [4],inhibition [5],Structure (SMILES)
< 10 nM,inactive,Active,,,CCCc1cc(C)[nH]c(=O)c1CNC(=O)c1cc(-c2ccc(N3CCN(C(C)C)CC3)nc2)cc2c1cnn2C(C)C
,inactive,,75 nM,Active,CC[C@H](C)n1cc(C)c2c(C(=O)NCc3c(C)cc(C)[nH]c3=O)cc(-c3ccc(N4CCNCC4)nc3)cc21 [GSK2816126]
